≈ marks a conversion by molar mass, not a printed value.
How the values were obtained:
Assay type in all cases: functional
[1] = system: Staphylococcus aureus; experiment: Antibacterial activity against Staphylococcus aureus ATCC 6538p
[2] = system: Streptococcus pneumoniae; experiment: Antibacterial activity against macrolide resistant Streptococcus pneumoniae ATCC 700677
[3] = system: Enterococcus faecalis; experiment: Antibacterial activity against Enterococcus faecalis ATCC 51575
[4] = system: Streptococcus pneumoniae; experiment: Antibacterial activity against macrolide resistant Streptococcus pneumoniae ATCC 700906
[5] = system: Staphylococcus aureus; experiment: Antibacterial activity against Staphylococcus aureus ATCC 29213
[6] = system: Streptococcus pneumoniae; experiment: Antibacterial activity against macrolide resistant Streptococcus pneumoniae ATCC 700676
[7] = system: Staphylococcus aureus; experiment: Antibacterial activity against macrolide resistant Staphylococcus aureus ATCC BAA-39
[8] = system: Streptococcus pneumoniae; experiment: Antibacterial activity against Streptococcus pneumoniae ATCC 700671
[9] = system: Streptococcus pneumoniae; experiment: Antibacterial activity against Streptococcus pneumoniae ATCC 6301
[10] = system: Staphylococcus aureus; experiment: Antibacterial activity against macrolide resistant Staphylococcus aureus ATCC BAA-44
[11] = system: Streptococcus pneumoniae; experiment: Antibacterial activity against Streptococcus pneumoniae ATCC 49619
[12] = system: Streptococcus pneumoniae; experiment: Antibacterial activity against macrolide resistant Streptococcus pneumoniae ATCC 700905
[13] = system: Staphylococcus epidermidis; experiment: Antibacterial activity against Staphylococcus epidermidis ATCC 12228
[14] = system: Staphylococcus aureus; experiment: Antibacterial activity against macrolide resistant Staphylococcus aureus ATCC 141541
[15] = system: Staphylococcus aureus; experiment: Antibacterial activity against macrolide resistant Staphylococcus aureus ATCC 33591
[16] = system: Haemophilus influenzae; experiment: Antibacterial activity against Haemophilus influenzae EH003
[17] = system: Haemophilus influenzae; experiment: Antibacterial activity against Haemophilus influenzae EH002
[18] = system: Haemophilus influenzae; experiment: Antibacterial activity against Haemophilus influenzae ATCC 49766
[19] = system: Haemophilus influenzae; experiment: Antibacterial activity against Haemophilus influenzae EH001
[20] = system: Haemophilus influenzae; experiment: Antibacterial activity against Haemophilus influenzae ATCC 9006

CC[C@H]1OC(=O)C[C@@H](O)[C@H](C)[C@@H](O[C@@H]2O[C@H](C)[C@@H](O)[C@H](N(C)C)[C@@H]2O)[C@@H](CCN2CC(C)CC(C)C2)C[C@@H](C)C(=N\OCCCc2ccc3ncccc3c2)/C=C/C(C)=C/C1CO (stereo partly specified)
MIC [1]: > 12.5 µg/mL | MIC [2]: > 12.5 µg/mL | MIC [3]: > 12.5 µg/mL | MIC [4]: > 12.5 µg/mL | MIC [5]: > 12.5 µg/mL | MIC [6]: 12.5 µg/mL (≈ 14.2 µM) | MIC [7]: > 12.5 µg/mL | MIC [8]: 6.25 µg/mL (≈ 7.11 µM) | MIC [9]: 6.25 µg/mL (≈ 7.11 µM) | MIC [10]: > 12.5 µg/mL | MIC [11]: 6.25 µg/mL (≈ 7.11 µM) | MIC [12]: 12.5 µg/mL (≈ 14.2 µM) | MIC [13]: > 12.5 µg/mL | MIC [14]: > 12.5 µg/mL | MIC [15]: > 12.5 µg/mL

CC[C@H]1OC(=O)C[C@@H](O)[C@H](C)[C@@H](O[C@@H]2O[C@H](C)[C@@H](O)[C@H](N(C)C)[C@H]2O)[C@@H](CC=O)C[C@@H](C)C(=O)/C=C/C(C)=C/C1CO (stereo partly specified)
MIC [1]: 0.39 µg/mL (≈ 0.652 µM) | MIC [16]: 1.56 µg/mL (≈ 2.61 µM) | MIC [17]: 6.25 µg/mL (≈ 10.5 µM) | MIC [18]: 1.56 µg/mL (≈ 2.61 µM) | MIC [2]: 6.25 µg/mL (≈ 10.5 µM) | MIC [3]: > 12.5 µg/mL | MIC [4]: > 12.5 µg/mL | MIC [19]: 3.12 µg/mL (≈ 5.22 µM) | MIC [5]: 0.78 µg/mL (≈ 1.3 µM) | MIC [6]: 0.78 µg/mL (≈ 1.3 µM) | MIC [7]: > 12.5 µg/mL | MIC [8]: 0.049 µg/mL (≈ 0.082 µM) | MIC [9]: 0.025 µg/mL (≈ 0.0418 µM) | MIC [10]: > 12.5 µg/mL | MIC [20]: 1.56 µg/mL (≈ 2.61 µM) | MIC [11]: 0.098 µg/mL (≈ 0.164 µM) | MIC [12]: 0.78 µg/mL (≈ 1.3 µM) | MIC [13]: 0.39 µg/mL (≈ 0.652 µM) | MIC [14]: 1.56 µg/mL (≈ 2.61 µM) | MIC [15]: > 12.5 µg/mL

CC[C@H]1OC(=O)C[C@@H](O)[C@H](C)[C@@H](O[C@@H]2O[C@H](C)[C@@H](O)[C@H](N(C)C)[C@@H]2O)[C@@H](CCN2CC(C)CC(C)C2)C[C@@H](C)C(=N/OCCCCc2ccc3ncccc3c2)/C=C/C(C)=C/C1CO (stereo partly specified)
MIC [1]: 6.25 µg/mL (≈ 7 µM) | MIC [2]: > 12.5 µg/mL | MIC [3]: > 12.5 µg/mL | MIC [4]: > 12.5 µg/mL | MIC [5]: 12.5 µg/mL (≈ 14 µM) | MIC [6]: 6.25 µg/mL (≈ 7 µM) | MIC [7]: > 12.5 µg/mL | MIC [8]: 3.12 µg/mL (≈ 3.49 µM) | MIC [9]: 1.56 µg/mL (≈ 1.75 µM) | MIC [10]: > 12.5 µg/mL | MIC [11]: 6.25 µg/mL (≈ 7 µM) | MIC [12]: 6.25 µg/mL (≈ 7 µM) | MIC [13]: > 12.5 µg/mL | MIC [14]: > 12.5 µg/mL | MIC [15]: > 12.5 µg/mL

CC[C@H]1OC(=O)[C@H](C)[C@@H](O[C@H]2C[C@@](C)(OC)[C@@H](O)[C@H](C)O2)[C@H](C)[C@@H](O[C@@H]2O[C@H](C)C[C@H](N(C)C)[C@H]2O)[C@](C)(O)C[C@@H](C)C(=O)[C@H](C)[C@@H](O)[C@]1(C)O [ERYTHROMYCIN]
MIC [1]: 0.098 µg/mL (≈ 0.134 µM) | MIC [16]: 3.12 µg/mL (≈ 4.25 µM) | MIC [17]: 6.25 µg/mL (≈ 8.52 µM) | MIC [18]: 6.25 µg/mL (≈ 8.52 µM) | MIC [2]: 6.25 µg/mL (≈ 8.52 µM) | MIC [3]: > 12.5 µg/mL | MIC [4]: > 12.5 µg/mL | MIC [19]: 3.12 µg/mL (≈ 4.25 µM) | MIC [5]: 0.2 µg/mL (≈ 0.273 µM) | MIC [6]: 6.25 µg/mL (≈ 8.52 µM) | MIC [7]: > 12.5 µg/mL | MIC [8]: 0.049 µg/mL (≈ 0.0668 µM) | MIC [9]: 0.025 µg/mL (≈ 0.0341 µM) | MIC [10]: > 12.5 µg/mL | MIC [20]: 1.56 µg/mL (≈ 2.13 µM) | MIC [11]: 0.049 µg/mL (≈ 0.0668 µM) | MIC [12]: 3.12 µg/mL (≈ 4.25 µM) | MIC [13]: 0.2 µg/mL (≈ 0.273 µM) | MIC [15]: > 12.5 µg/mL

CC[C@H]1OC(=O)[C@H](C)C(=O)[C@H](C)[C@@H](O[C@@H]2O[C@H](C)C[C@H](N(C)C)[C@H]2O)[C@](C)(OC)C[C@@H](C)C(=O)[C@H](C)[C@H]2N(CCCCn3cnc(-c4cccnc4)c3)C(=O)O[C@]12C [TELITHROMYCIN]
MIC [16]: 1.56 µg/mL (≈ 1.92 µM) | MIC [17]: 6.25 µg/mL (≈ 7.7 µM) | MIC [18]: 3.12 µg/mL (≈ 3.84 µM) | MIC [2]: 0.025 µg/mL (≈ 0.0308 µM) | MIC [4]: 0.2 µg/mL (≈ 0.246 µM) | MIC [19]: 1.56 µg/mL (≈ 1.92 µM) | MIC [6]: 0.098 µg/mL (≈ 0.121 µM) | MIC [8]: 0.025 µg/mL (≈ 0.0308 µM) | MIC [9]: 0.025 µg/mL (≈ 0.0308 µM) | MIC [20]: 1.56 µg/mL (≈ 1.92 µM) | MIC [11]: 0.049 µg/mL (≈ 0.0603 µM) | MIC [12]: 0.025 µg/mL (≈ 0.0308 µM)

CC[C@H]1OC(=O)C[C@@H](O)[C@H](C)[C@@H](O[C@@H]2O[C@H](C)[C@@H](O)[C@H](N(C)C)[C@H]2O)[C@@H](CCN2C[C@H](C)C[C@H](C)C2)C[C@@H](C)C(=O)/C=C/C(C)=C/[C@@H]1CO[C@@H]1O[C@H](C)[C@@H](O)[C@@H](OC)[C@H]1OC [TILMICOSIN]
MIC [1]: 0.098 µg/mL (≈ 0.113 µM) | MIC [2]: 6.25 µg/mL (≈ 7.19 µM) | MIC [3]: > 12.5 µg/mL | MIC [4]: > 12.5 µg/mL | MIC [5]: 0.2 µg/mL (≈ 0.23 µM) | MIC [6]: 0.78 µg/mL (≈ 0.897 µM) | MIC [7]: > 12.5 µg/mL | MIC [8]: 0.78 µg/mL (≈ 0.897 µM) | MIC [9]: 0.39 µg/mL (≈ 0.449 µM) | MIC [10]: > 12.5 µg/mL | MIC [11]: 1.56 µg/mL (≈ 1.79 µM) | MIC [12]: 1.56 µg/mL (≈ 1.79 µM) | MIC [13]: 0.098 µg/mL (≈ 0.113 µM) | MIC [14]: 0.39 µg/mL (≈ 0.449 µM) | MIC [15]: > 12.5 µg/mL

CC[C@H]1OC(=O)C[C@@H](O)[C@H](C)[C@@H](O[C@@H]2O[C@H](C)[C@@H](O[C@H]3C[C@@](C)(O)[C@@H](O)[C@H](C)O3)[C@H](N(C)C)[C@H]2O)[C@@H](CC=O)C[C@@H](C)C(=O)/C=C/C(C)=C/[C@@H]1CO[C@@H]1O[C@H](C)[C@@H](O)[C@@H](OC)[C@H]1OC [TYLOSIN]
MIC [1]: 0.2 µg/mL (≈ 0.218 µM) | MIC [2]: > 12.5 µg/mL | MIC [3]: > 12.5 µg/mL | MIC [4]: > 12.5 µg/mL | MIC [5]: 1.56 µg/mL (≈ 1.7 µM) | MIC [6]: 0.2 µg/mL (≈ 0.218 µM) | MIC [7]: > 12.5 µg/mL | MIC [8]: 0.2 µg/mL (≈ 0.218 µM) | MIC [9]: 0.098 µg/mL (≈ 0.107 µM) | MIC [10]: > 12.5 µg/mL | MIC [11]: 0.098 µg/mL (≈ 0.107 µM) | MIC [12]: 0.2 µg/mL (≈ 0.218 µM) | MIC [13]: 0.39 µg/mL (≈ 0.426 µM) | MIC [14]: 1.56 µg/mL (≈ 1.7 µM) | MIC [15]: > 12.5 µg/mL
